Results as given in ChEMBL document CHEMBL4610126, “EEDi-5285: An Exceptionally Potent, Efficacious, and Orally Active Small-Molecule Inhibitor of Embryonic Ectoderm Development” (J Med Chem, 2020).

How the values were obtained:
KARPAS-422 [1] = experiment: Growth inhibition of human KARPAS422 cells incubated for 7 days by WST8 assay; settings: KARPAS-422, 168 h
Polycomb protein EED = Polycomb protein EED (Homo sapiens, UniProt O75530)
Pfeiffer [2] = experiment: Growth inhibition of human Pfeiffer cells incubated for 7 days by WST8 assay; type: functional, cell-based; settings: 168 h
[3] = Plasma concentration in mouse at 25 mg/kg, po after 6 hrs by LC-MS/MS analysis; type: ADME, organism-based
[4] = Plasma concentration in mouse at 25 mg/kg, po after 1 hr by LC-MS/MS analysis; type: ADME, organism-based
[5] = Plasma concentration in mouse at 25 mg/kg, po after 3 hrs by LC-MS/MS analysis; type: ADME, organism-based
KARPAS-422 [6] = experiment: Antitumor activity against human KARPAS422 cells xenografted in mouse assessed as inhibition of tumor growth at 100 mg/kg, po dosed twice daily for 36 days; type: functional; settings: KARPAS-422, po, 864 h, read-out: TGI
[7] = Volume of distribution at steady state in mouse at 2 mg/kg, iv by LC-MS/MS analysis; type: ADME, organism-based; settings: in vivo, read-out: Vdss
KARPAS-422 [8] = experiment: Antitumor activity against human KARPAS422 cells xenografted in SCID mouse assessed as induction of tumor regression at 100 mg/kg, po dosed daily for 28 days relative to control; type: functional
KARPAS-422 [9] = experiment: Antitumor activity against human KARPAS422 cells xenografted in SCID mouse assessed as induction of tumor regression at 50 mg/kg, po dosed daily for 28 days relative to control; type: functional
[10] = Toxicity in SCID mouse xenografted with human KARPAS422 cells assessed as induction of body weight loss at 50 to 100 mg/kg, po dosed daily for 28 days; type: organism-based, KARPAS-422; settings: in vivo, 672 h
[11] = AUC (0 to t) in mouse at 2 mg/kg, iv by LC-MS/MS analysis; type: ADME, organism-based; settings: in vivo
[12] = AUC (0 to t) in mouse at 10 mg/kg, po by LC-MS/MS analysis; type: ADME, organism-based; settings: in vivo
[13] = Plasma clearance in mouse at 2 mg/kg, iv by LC-MS/MS analysis; type: ADME, organism-based
[14] = Cmax in mouse at 10 mg/kg, po by LC-MS/MS analysis; type: ADME, organism-based; parameters: dose 10 mg/kg, route oral; settings: in vivo
[15] = Terminal half life in mouse at 10 mg/kg, po by LC-MS/MS analysis; type: ADME, organism-based; settings: in vivo, read-out: beta t1/2 (converted)
Pfeiffer [16] = experiment: Growth inhibition of human Pfeiffer cells incubated for 10 days by WST8 assay; type: functional, cell-based; settings: 240 h

Polycomb protein EED, sequence (O75530 whole entry): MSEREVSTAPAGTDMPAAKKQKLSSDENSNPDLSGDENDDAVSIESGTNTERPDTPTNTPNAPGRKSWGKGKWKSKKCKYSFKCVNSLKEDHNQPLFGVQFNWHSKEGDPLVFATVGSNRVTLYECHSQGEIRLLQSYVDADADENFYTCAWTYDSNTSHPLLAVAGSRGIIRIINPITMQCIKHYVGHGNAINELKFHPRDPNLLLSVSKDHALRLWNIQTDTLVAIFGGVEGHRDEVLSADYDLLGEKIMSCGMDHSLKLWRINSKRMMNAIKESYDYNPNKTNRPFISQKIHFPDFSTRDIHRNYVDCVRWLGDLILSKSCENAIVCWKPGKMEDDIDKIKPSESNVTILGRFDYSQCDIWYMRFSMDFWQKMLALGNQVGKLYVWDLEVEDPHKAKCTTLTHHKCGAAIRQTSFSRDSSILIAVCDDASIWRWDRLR

| Compound | IC50 (KARPAS-422 [1]) [nM] | IC50 (Polycomb protein EED) [nM] | IC50 (Pfeiffer [2]) [nM] | concentration at 6 h [3] [ng/mL] | concentration at 1 h [4] [ng/mL] | concentration at 3 h [5] [ng/mL] | further results |
| --- | --- | --- | --- | --- | --- | --- | --- |
| CP(C)(=O)c1ncn2c(NCc3c(F)ccc4c3CCO4)ncc(-c3ccccc3)c12 | 8.1 |  |  |  |  |  |  |
| CS(=O)(=O)c1ncn2c(NCc3c(F)ccc4c3CCO4)ncc(C3CCN(S(C)(=O)=O)CC3)c12 | 15.3 | 7.9 |  |  |  |  |  |
| CCOC(=O)c1ncn2c(NCc3cccc4c3CCO4)ncc(-c3ccccc3)c12 | 210 |  |  |  |  |  |  |
| CS(=O)(=O)c1ncn2c(NCc3c(F)ccc4c3CCO4)ncc(-c3ccc(C(F)(F)F)nc3)c12 | 1.7 | 0.3 | 0.03 | 139 | 468 | 189 |  |
| Cc1cc(S(C)(=O)=O)ccc1-c1cnc(NCc2c(F)ccc3c2CCO3)n2cnc(S(C)(=O)=O)c12 | 1.6 | 0.9 | 0.02 | 98 | 591 | 279 |  |
| Cc1nc(C(F)(F)F)ccc1-c1cnc(NCc2c(F)ccc3c2CCO3)n2cnc(S(C)(=O)=O)c12 | 1.7 | 0.4 | 0.05 | 415 | 896 | 794 |  |
| CCOC(=O)c1ncn2c(NCc3cccc4c3OCC4)ncc(-c3ccccc3)c12 | 6300 |  |  |  |  |  |  |
| CS(=O)(=O)c1ccc(-c2cnc(NCc3ccco3)n3cnnc23)cc1 | 180 | 17.6 |  |  |  |  | inhibition in vivo at 100 mg/kg (KARPAS-422 [6]): 85% |
| Fc1ccc2c(c1CNc1ncc(-c3ccccc3)c3c(C(F)(F)F)ncn13)CCO2 | 120 |  |  |  |  |  |  |
| CC(=O)N1CCC(c2cnc(NCc3c(F)ccc4c3CCO4)n3cnc(S(C)(=O)=O)c23)CC1 | 6.5 | 2.8 |  |  |  |  |  |
| Cc1ncccc1-c1cnc(NCc2c(F)ccc3c2CCO3)n2cnc(S(C)(=O)=O)c12 | 3.6 |  | 0.08 | 91 | 488 | 194 |  |
| CCOC(=O)c1ncn2c(NCc3cc(OC)ccc3F)ncc(-c3ccccc3)c12 | 2700 |  |  |  |  |  |  |
| CCN1CCC(c2cnc(NCc3c(F)ccc4c3CCO4)n3cnc(S(C)(=O)=O)c23)CC1 | 126 | 23 |  |  |  |  |  |
| CS(=O)(=O)c1ncn2c(NCc3c(F)ccc4c3CCO4)ncc(C3CCN(S(=O)(=O)C4CC4)CC3)c12 | 8.2 | 3.1 |  |  |  |  |  |
| CNC(=O)c1ncn2c(NCc3c(F)ccc4c3CCO4)ncc(-c3ccccc3)c12 | 60 |  |  |  |  |  |  |
| CS(=O)(=O)c1ncn2c(NCc3c(F)ccc4c3CCO4)ncc(C3CCOCC3)c12 | 52 | 12 |  |  |  |  |  |
| CCOC(=O)c1ncn2c(NCc3cccc4c3OCO4)ncc(-c3ccccc3)c12 | 300 | 40 |  |  |  |  |  |

| Compound | IC50 (KARPAS-422 [1]) [nM] | IC50 (Polycomb protein EED) [nM] | IC50 (Pfeiffer [2]) [nM] | concentration at 6 h [3] [ng/mL] | concentration at 1 h [4] [ng/mL] | concentration at 3 h [5] [ng/mL] | further results |
| --- | --- | --- | --- | --- | --- | --- | --- |
| CCOC(=O)c1ncn2c(NCc3ccco3)ncc(-c3ccccc3)c12 | 1000 |  |  |  |  |  |  |
| CS(=O)(=O)c1ccc(-c2cnc(NCc3c(F)ccc4c3CCO4)n3cnc(S(C)(=O)=O)c23)cn1 | 2.9 |  | 0.5 | 41 | 351 | 36 |  |
| Cn1cc(-c2cnc(NCc3c(F)ccc4c3CCO4)n3cnc(S(C)(=O)=O)c23)cn1 | 3.1 | 0.5 | 0.27 | 56 | 468 | 50 |  |
| CS(=O)(=O)c1ncn2c(NCc3c(F)ccc4c3CCO4)ncc(-c3ccc(F)cc3)c12 | 5.2 | 0.4 | 0.12 | < 10 | 43 | < 10 |  |
| CS(=O)(=O)c1ncn2c(NCc3c(F)ccc4c3CCO4)ncc(-c3ccc(C4CC4)nc3)c12 | 0.5 | 0.2 | 0.02 | 452 | 1100 | 608 | Vd [7]: 1.4 L/kg; Activity (KARPAS-422 [8]): 100%; Activity (KARPAS-422 [9]): 100%; Activity [10]: Non-Toxic; AUC(0-t) [11]: 1700 ng·h/mL; AUC(0-t) [12]: 6000 ng·h/mL; clearance [13]: 20 mL/min/kg; Cmax [14]: 1800 ng/mL |
| CS(=O)(=O)c1ncn2c(NCc3c(F)ccc4c3CCO4)ncc(C3CCS(=O)(=O)CC3)c12 | 29 | 7.8 |  |  |  |  |  |
| CS(=O)(=O)c1ccc(-c2cnc(NCc3c(F)ccc4c3CCO4)n3cnc(S(C)(=O)=O)c23)cc1 | 1.4 |  | 0.02 | 109 | 598 | 171 |  |
| Cc1ccc(-c2cnc(NCc3c(F)ccc4c3CCO4)n3cnc(S(C)(=O)=O)c23)c(C)n1 |  | 0.5 |  | 485 | 2480 | 754 | Vd [7]: 1.6 L/kg; Activity (KARPAS-422 [8]): 100%; Activity (KARPAS-422 [9]): 100%; Activity [10]: Non-Toxic; AUC(0-t) [11]: 800 ng·h/mL; AUC(0-t) [12]: 2600 ng·h/mL; half-life [15]: 2.1 h; clearance [13]: 40 mL/min/kg; Cmax [14]: 1300 ng/mL |
| Cc1ccc(-c2cnc(NCc3c(F)ccc4c3CCO4)n3cnc(S(C)(=O)=O)c23)cn1 | 1.4 |  | 0.03 | 29 | 340 | 94 |  |
| CNC(=O)c1ncn2c(NCc3ccco3)ncc(-c3ccccc3)c12 | 2400 |  |  |  |  |  |  |
| CCOC(=O)c1ncn2c(NCc3ccccc3)ncc(-c3ccccc3)c12 | 3000 |  |  |  |  |  |  |
| CS(=O)(=O)c1ncn2c(NCc3c(F)ccc4c3CCO4)ncc(-c3ccccc3)c12 | 2.2 |  |  |  |  |  |  |
| CS(=O)(=O)c1ncn2c(NCc3c(F)ccc4c3CCO4)ncc(-c3ccc(C(F)F)nc3)c12 | 2.4 | 0.2 | 0.02 | < 10 | 242 | 18 |  |
| CCOC(=O)c1ncn2c(NCc3ccc(OC)cc3F)ncc(-c3ccccc3)c12 | 4300 |  |  |  |  |  |  |
| CN(C)[C@H]1CN(C2CCc3cccc(F)c32)C[C@@H]1c1ccc(N2CCN(S(C)(=O)=O)CC2)cc1 (some centres undefined) |  |  |  |  |  |  | IC50 (Pfeiffer [16]): 69 nM |
| CCOC(=O)c1ncn2c(NCc3c(F)cccc3OC)ncc(-c3ccccc3)c12 | 300 | 50 |  |  |  |  |  |
